Laboratory results as given in US6534503B1, “Melanocortin receptor-3 ligands to treat sexual dysfunction” (Lion Bioscience AG, priority 1998, dated 2003).

Assays:
MC-4 = target: T1, MC-4 (Homo sapiens, UniProt P32245); assay: cAMP assay for melanocortin receptors, HEK 293 cells expressing MC-4; type: cell-based; conditions: concentration for 50% of the maximum increase by that ligand
T1 construct: expressed in transfected cells; host or cells: HEK 293
Source text: (§1) All cell culture media and reagents were obtained from GibcoBRL (Gaithersburg Md.), except for COSMIC CALF SERUM (HyClone; Logan Utah). HEK 293 cell lines were transfected with human MC receptors hMCR-1, hMCR-3 and hMCR-4 (Gantz et al., Biochem. Biophys. Res. Comm. 200:1214-1220 (1994); Gantz et al., J. Biol. Chem. 268:8246-8250 (1993); Gantz et al. J. Biol. Chem. 268:15174-15179 (1993); Haskell-Leuvano et al., Biochem. Biophys. Res. Comm. 204:1137-1142 (1994)). Vectors for constructing an hMCR-5-expressing cell line were obtained and a line of HEK 293 cells expressing hMCR-5 was constructed (Gantz, supra, 1994). Receptor hMCR-5 has been described previously (Franberg et al., Biochem. Biophys. Res. Commun. 236:489-492 (1997); Chowdhary et al., Cytogenet. Cell Genet. 68:1-2 (1995); Chowdhary et al., Cytogenet. Cell Genet. 68:79-81 (1995)). HEK 293 cells were maintained in DMEM, 25 mM HEPES, 2 mM glutamine, non-essential amino acids, vitamins, sodium pyruvate, 10% COSMIC CALF SERUM, 100 units/ml penicillin, 100 μg/ml streptomycin and 0.2 mg/ml G418 to maintain selection.
(§2) This example describes methods for assaying cAMP production from G-protein-coupled MC receptors.
(§3) HEK 293 cells individually expressing MCR-1, CR-3, MCR-4 or MCR-5 were used. Cells were plated at 20,000 cells per well in a 96-well plate coated with collagen (Beckton Dickinson; Bridgeport N.J.). The next day, cells were pretreated with 88 μl of 0.4 mM 3-isobutyl-1-methylxanthine (IBMX) in low serum medium containing DMEM, 25 mM HEPES and 0.1% COSMIC CALF SERUM. IBMX is an inhibitor of cAMP phosphodiesterase. The pretreatment was carried out for 10 minutes at 37° C.
(§4) Following pretreatment, 12.5 μl of diluted compound was added to the wells and cells were incubated for 15 min at 37° C. Cells were lysed by adding 25 μl saponin lysis buffer (130 mM KCl, 1 mM KH2PO4, 2.5 mM MgSO4, 15 mM sucrose, 20 mM HEPES, 2% BSA, 0.8% saponin) and incubating 2 to 5 minutes. Plates were covered and stored at −20° C.
(§5) The cAMP concentration was determined by ELISA. Briefly, 96 well ELISA plates were coated with goat anti-cAMP antibody in PBS for 12 to 72 hr at 4° C. 50 μl of sample was mixed with 50 μl of cAMP ELISA buffer containing 1% bovine serum albumin, 10% heat inactivated donor horse serum, 1% normal mouse serum and 0.05% TWEEN-20 in PBS, and the diluted sample was added to the coated ELISA plate. Standards of known concentrations of cAMP were added to separate wells. Then, cAMP-conjugated horseradish peroxidase (cAMP-HRP) was added to each well at 25 μl of 16 ng/ml. The plates were incubated for 3 hr at room temperature. Plates were washed and the binding of cAMP-HRP was detected with 3,3′,5,5′-tetramethylbenzidine (TMB) and hydrogen peroxide using standard immunoassay procedures.
(§6) Various compounds were tested for in vitro activity and binding to melanocortin receptors. MC-3 stimulatory effect is also described in terms of percentage of stimulation obtained by adding HP-228 at 0.8 μM. The EC50 values are the concentration of ligand necessary to achieve 50% of the maximum increase by that ligand in an assay. The IC50 values are the concentration giving 50% inhibition of binding of ^125I-HP 467.

MC-3 = target: T2, MC-3 (Homo sapiens, UniProt P41968); assay: cAMP assay for melanocortin receptors, HEK 293 cells expressing MC-3; type: cell-based; conditions: for Emax: HEK293, percentage of stimulation obtained by adding HP-228 at 0.8 μM, read-out: % of HP-228 (MC-3 stimulatory effect); for EC50: concentration for 50% of the maximum increase by that ligand
T2 construct: expressed in transfected cells; host or cells: HEK 293
T2 sequence (P41968 whole entry): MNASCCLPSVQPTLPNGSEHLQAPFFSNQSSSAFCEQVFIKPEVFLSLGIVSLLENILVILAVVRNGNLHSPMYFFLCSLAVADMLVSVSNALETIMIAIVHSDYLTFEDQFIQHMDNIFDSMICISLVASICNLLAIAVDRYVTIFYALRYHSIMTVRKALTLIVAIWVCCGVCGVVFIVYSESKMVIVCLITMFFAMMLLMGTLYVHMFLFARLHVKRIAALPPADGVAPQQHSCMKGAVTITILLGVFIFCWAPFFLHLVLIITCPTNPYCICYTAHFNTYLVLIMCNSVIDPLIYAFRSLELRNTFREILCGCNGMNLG
Source text: as §1, §2, §3, §4, §5, §6

male Sprague-Dawley rats [1] = assay: Effect of oxytocin receptor antagonist vasotocin on erectile effects in rats; type: in vivo; conditions: rat
Source text: (§7) In both examples, male Sprague-Dawley rats, about 200 to 225 g, were acclimated for 5 days in a reverse light:dark cycle room (dark 10 a.m. to 10 p.m.) before being aseptically ICV cannulated. Rats with indwelling ICV cannulae were housed one per cage. After surgery, 4 days were allowed for recovery and 10 days total were allowed for adaptation to the light cycle. Rats were caged individually after surgery and body weights at the time of treatment averaged 250 g. Otherwise, the procedure is essentially the same as in Example II.
Treatment was between 10 a.m. and 1 p.m. […] Vasotocin (Peninsula Laboratories, San Carlos Calif.) was administered ICV at 100 ng/rat. Oxytocin (Sigma, St. Louis Mo.) was administered ICV at 30 ng/rat (10 μl/rat PBS). Ten minutes later, IP injections of HP-228 or vehicle were given. HP-228 was administered IP at 2 mg/kg in 3 ml/kg PBS. One group of animals received ICV injections of vasotocin and oxytocin ICV injections of 5 μl/rat each at double concentrations for a total of 10 μl injected ICV. In this group, the rats received vasotocin first, followed by oxytocin.

MC-1 = target: T3, MC-1 (Homo sapiens, UniProt Q01726); assay: cAMP assay for melanocortin receptors, HEK 293 cells expressing MC-1; type: cell-based; conditions: concentration for 50% of the maximum increase by that ligand
T3 construct: expressed in transfected cells; host or cells: HEK 293
T3 sequence (Q01726 whole entry): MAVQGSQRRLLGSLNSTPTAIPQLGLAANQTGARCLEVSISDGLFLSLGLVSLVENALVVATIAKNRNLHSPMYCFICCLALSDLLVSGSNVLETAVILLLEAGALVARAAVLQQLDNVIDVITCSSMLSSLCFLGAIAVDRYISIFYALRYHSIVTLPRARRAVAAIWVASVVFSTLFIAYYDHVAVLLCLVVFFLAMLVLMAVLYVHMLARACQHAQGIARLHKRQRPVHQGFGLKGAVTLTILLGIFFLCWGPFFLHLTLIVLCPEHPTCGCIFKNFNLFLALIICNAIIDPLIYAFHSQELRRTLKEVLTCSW
Source text: as §1, §2, §3, §4
as §5, with “procedures. […]” for “procedures.”

male Sprague-Dawley rats [2] = assay: Effect of dopamine receptor antagonist sulpiride on erectile effects in rats; type: in vivo; conditions: rat
Source text: as §7
Treatment was between 9:30 a.m. and noon. Each animal received an initial IP injection of vehicle (3 ml/kg PBS) or sulpiride. Sulpiride (Sigma) was administered IP at 50 mg/kg (6 ml/kg IP). Ten minutes later, the animals received a final IP injection of HP-228 or vehicle or a SC injection of apomorphine. HP-228 was administered IP at 2 mg/kg in 3 ml/kg PBS. Apomorphine (Sigma) was administered SC at 0.1 mg/kg (1 ml/kg sterile water).

[3] = single agent plus PBS: oxytocin 30 ng/rat ICV, HP-228 2 mg/kg IP, vasotocin 100 ng/rat ICV
[4] = vasotocin 100 ng/rat ICV followed by HP-228 2 mg/kg IP
[5] = vasotocin ICV followed by oxytocin ICV
[6] = single agent plus PBS: apomorphine 0.1 mg/kg SC, HP-228 2 mg/kg IP, sulpiride 50 mg/kg IP
[7] = sulpiride 50 mg/kg IP followed by HP-228 2 mg/kg IP
[8] = sulpiride 50 mg/kg IP followed by apomorphine 0.1 mg/kg SC

T1 sequence (P32245 whole entry): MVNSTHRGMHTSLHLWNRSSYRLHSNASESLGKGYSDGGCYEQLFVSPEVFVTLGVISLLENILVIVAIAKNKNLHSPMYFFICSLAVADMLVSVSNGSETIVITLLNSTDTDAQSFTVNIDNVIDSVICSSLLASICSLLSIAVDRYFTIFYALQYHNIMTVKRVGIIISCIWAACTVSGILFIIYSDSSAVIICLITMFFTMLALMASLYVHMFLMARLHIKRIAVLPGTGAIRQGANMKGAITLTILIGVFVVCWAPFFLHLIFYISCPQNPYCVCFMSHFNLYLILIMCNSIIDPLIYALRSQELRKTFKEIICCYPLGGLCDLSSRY

CCCCOc1ccc(-c2nc3cc(C(=O)NC(Cc4ccccc4)c4ccccc4)ccc3n2C(CCCNC(=N)N)C(N)=O)cc1 (centres unmarked) [Compound B]
EC50 (MC-4): 12000 nM
Emax (MC-3): 115%
EC50 (MC-3): 1330 nM

CC[C@H](C)[C@@H]1NC(=O)[C@H](Cc2ccc(O)cc2)NC(=O)[C@@H](N)CSSC[C@@H](C(=O)N2CCC[C@H]2C(=O)N[C@@H](CC(C)C)C(=O)NCC(N)=O)NC(=O)[C@H](CC(N)=O)NC(=O)[C@H](CCC(N)=O)NC1=O [Oxytocin]
response rate, % of animals (male Sprague-Dawley rats [1]; oxytocin and HP-228 groups): 88%-100%
erections per hour (male Sprague-Dawley rats [1]; [3]): 3.9 erections per hour
responder rate of animals (rats responding out of rats) (male Sprague-Dawley rats [1]; [3]): 7/8

CCCCOc1ccc(-c2nc3cc(C(=O)N(CCc4ccccc4)Cc4cccnc4)ccc3n2[C@@H](CCCNC(=N)N)C(N)=O)cc1 [Compound M]
Emax (MC-3): 89%
EC50 (MC-3): 3670 nM

CC(C)c1ccc(-c2nc3cc(C(=O)NC(Cc4ccccc4)c4ccccc4)ccc3n2C(CCCNC(=N)N)C(N)=O)cc1 (centres unmarked) [Compound C]
EC50 (MC-4): 10600 nM
Emax (MC-3): 92%
EC50 (MC-3): 1400 nM

CC(C)c1ccc(-c2nc3cc(C(=O)N(CCc4ccccc4)Cc4ccccc4)ccc3n2C(CCCNC(=N)N)C(N)=O)cc1 (centres unmarked) [Compound D]
EC50 (MC-4): 2800 nM
Emax (MC-3): 140%
EC50 (MC-3): 1700 nM

CC(C)(C)c1ccc(-c2nc3cc(C(=O)NC(Cc4ccccc4)c4ccccc4)ccc3n2C(CCCNC(=N)N)C(N)=O)cc1 (centres unmarked) [Compound E]
EC50 (MC-4): 19900 nM
EC50 (MC-1): 430 nM
Emax (MC-3): 59%
EC50 (MC-3): 6700 nM

CC(C)(C)c1ccc(-c2nc3cc(C(=O)N4CC=C(c5ccc(Cl)cc5)CC4)ccc3n2[C@@H](CCCNC(=N)N)C(N)=O)cc1 [Compound K]
EC50 (MC-4): 80 nM
EC50 (MC-1): 380 nM
Emax (MC-3): 91%
EC50 (MC-3): 1750 nM

d(CH2)5-Tyr(Me^2)-Orn^8-Vasotocin
erections per hour (male Sprague-Dawley rats [1]; [3]): 0.2 erections per hour
responder rate of animals (rats responding out of rats) (male Sprague-Dawley rats [1]; [3]): 2/8
erections per hour (male Sprague-Dawley rats [1]; [4]): 5.6 erections per hour
responder rate of animals (rats responding out of rats) (male Sprague-Dawley rats [1]; [4]): 8/8
erections per hour (male Sprague-Dawley rats [1]; [5]): 1.0 erections per hour
responder rate of animals (rats responding out of rats) (male Sprague-Dawley rats [1]; [5]): 4/8

CCN1CCCC1CNC(=O)c1cc(S(N)(=O)=O)ccc1OC (centres unmarked) [sulpiride]
erections per hour (male Sprague-Dawley rats [2]; [6]): 0.0 erections per hour
rate of animals responding (male Sprague-Dawley rats [2]; [6]): 0/2
erections per hour (male Sprague-Dawley rats [2]; [7]): 6.7 erections per hour
rate of animals responding (male Sprague-Dawley rats [2]; [7]): 4/4
erections per hour (male Sprague-Dawley rats [2]; [8]): 1.5 erections per hour
rate of animals responding (male Sprague-Dawley rats [2]; [8]): 3/4

CC(C)(C)c1ccc(-c2nc3cc(C(=O)N(CCc4ccccc4)Cc4cccnc4)ccc3n2[C@@H](CCCNC(=N)N)C(N)=O)cc1 [Compound L]
EC50 (MC-4): 6350 nM
EC50 (MC-1): 220 nM
Emax (MC-3): 350%
EC50 (MC-3): 4690 nM

CCCCCc1ccc(-c2nc3cc(C(=O)N(CCc4ccccc4)Cc4ccccc4)ccc3n2[C@@H](CCCNC(=N)N)C(N)=O)cc1 [Compound N]
EC50 (MC-4): 5900 nM
Emax (MC-3): 229%
EC50 (MC-3): 2320 nM

CN1CCc2cccc3c2[C@H]1Cc1ccc(O)c(O)c1-3 [apomorphine]
response rate, % of animals (male Sprague-Dawley rats [2]; apomorphine and HP-228 groups): 100%
erections per hour (male Sprague-Dawley rats [2]; [6]): 4.0 erections per hour
rate of animals responding (male Sprague-Dawley rats [2]; [6]): 6/6

CC(C)(C)c1ccc(-c2nc3cc(C(=O)N(CCc4ccccc4)Cc4ccccc4)ccc3n2C(CCCNC(=N)N)C(N)=O)cc1 (centres unmarked) [Compound A]
EC50 (MC-1): 470 nM
Emax (MC-3): 89%
EC50 (MC-3): 7650 nM
